Laboratory results from article PMC9820814, “In Vitro Reconstitution of the Melanin Pathway’s Catalytic Activities Using Tyrosinase Nanoparticles” (International Journal of Molecular Sciences, 2022).

How the values were obtained:
TYRP1 = biological target: T1, TYRP1 (Homo sapiens, UniProt P17643); experiment: DHICA oxidation, IQCA absorbance at […] nm; assay type: biochemical; settings: 1.5 mM DHICA; pH 7.4; 37 °C; 24 h; no MBTH
T1 construct: recombinant truncated intra-melanosomal domain, C-terminal part with transmembrane helix removed, purified on His-Trap; baculovirus / T. ni larvae; ~59 kDa
T1 sequence (P17643 25-477 limits assumed): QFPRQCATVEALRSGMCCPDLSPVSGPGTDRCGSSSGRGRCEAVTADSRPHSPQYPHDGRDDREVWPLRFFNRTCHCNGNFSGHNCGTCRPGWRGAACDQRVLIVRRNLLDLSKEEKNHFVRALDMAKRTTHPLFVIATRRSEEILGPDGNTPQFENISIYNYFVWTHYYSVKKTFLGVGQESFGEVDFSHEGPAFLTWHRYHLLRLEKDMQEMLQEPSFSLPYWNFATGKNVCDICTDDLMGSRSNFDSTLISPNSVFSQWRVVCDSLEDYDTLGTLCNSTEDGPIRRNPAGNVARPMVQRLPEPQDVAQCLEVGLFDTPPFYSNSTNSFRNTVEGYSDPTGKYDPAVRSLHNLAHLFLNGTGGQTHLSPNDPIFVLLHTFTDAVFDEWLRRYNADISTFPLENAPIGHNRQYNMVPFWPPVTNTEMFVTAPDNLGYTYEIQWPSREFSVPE

TYR = biological target: T2, TYR (Homo sapiens, UniProt P14679); experiment: diphenol oxidase activity, dopachrome absorbance at […] nm, Michaelis-Menten fit; assay type: biochemical; settings: free enzyme; 10 min incubation; 10 mM NaPO4 pH 7.4; 37 °C; unit printed mM^−1 (sic, mM meant)
T2 construct: recombinant truncated intra-melanosomal domain, C-terminal part with transmembrane helix removed, His-tagged; baculovirus / T. ni larvae
T2 sequence (P14679 19-469 limits assumed): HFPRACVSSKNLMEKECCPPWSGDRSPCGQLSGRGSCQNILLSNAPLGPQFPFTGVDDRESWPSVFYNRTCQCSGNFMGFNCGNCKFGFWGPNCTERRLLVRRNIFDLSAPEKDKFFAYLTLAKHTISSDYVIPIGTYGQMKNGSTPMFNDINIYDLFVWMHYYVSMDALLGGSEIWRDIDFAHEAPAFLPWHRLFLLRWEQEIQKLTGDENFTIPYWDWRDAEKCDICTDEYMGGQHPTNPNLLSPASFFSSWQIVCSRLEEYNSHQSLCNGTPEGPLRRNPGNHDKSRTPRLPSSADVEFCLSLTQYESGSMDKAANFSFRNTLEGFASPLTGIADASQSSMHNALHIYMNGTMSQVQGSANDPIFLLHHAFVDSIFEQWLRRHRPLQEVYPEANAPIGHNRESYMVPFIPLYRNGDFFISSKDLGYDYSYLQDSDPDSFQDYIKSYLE

SMILES: O=C(O)c1cc2cc(O)c(O)cc2[nH]1 [DHICA]
- DHICA oxidation, IQCA absorbance at 560 nm (TYRP1): the spectrum of the reaction shows the formation of a peak corresponding to a new product

SMILES: N[C@@H](Cc1ccc(O)c(O)c1)C(=O)O [L-DOPA]
- Km (mM^-1) / Tyr (TYR): 0.241 ± 0.069 mM⁻¹
